Assays:
Rattus norvegicus [1] = experiment: Anti-hyperglycemic activity in Wistar rat assessed as reduction in plasma glucose AUC (0 to 120 mins) at 5 mg/kg, po followed by glucose load by oral glucose tolerance test; assay type: functional
Rattus norvegicus [2] = experiment: Anti-hyperglycemic activity in Wistar rat assessed as reduction in plasma glucose AUC (0 to 120 mins) at 5 mg/kg, po followed by sucrose load by oral sucrose tolerance test; assay type: functional
Saccharomyces cerevisiae [3] = experiment: Inhibition of yeast alpha-glucosidase at 100 uM
Rattus norvegicus [4] = experiment: Anti-hyperglycemic activity in Wistar rat assessed as reduction in plasma glucose AUC (0 to 120 mins) at 5 mg/kg, po followed by maltose load by oral maltose tolerance test; assay type: functional
Saccharomyces cerevisiae [5] = experiment: Potency index, ratio of acarbose IC50 to test compound IC50 for inhibition of yeast alpha-glucosidase
[6] = Inhibition of yeast alpha-glucosidase; set-up: species or system Saccharomyces cerevisiae
[7] = biological target: Glycogen synthase kinase-3 beta (Homo sapiens, UniProt P49841)
Glycogen synthase kinase-3 beta, sequence (P49841 whole entry): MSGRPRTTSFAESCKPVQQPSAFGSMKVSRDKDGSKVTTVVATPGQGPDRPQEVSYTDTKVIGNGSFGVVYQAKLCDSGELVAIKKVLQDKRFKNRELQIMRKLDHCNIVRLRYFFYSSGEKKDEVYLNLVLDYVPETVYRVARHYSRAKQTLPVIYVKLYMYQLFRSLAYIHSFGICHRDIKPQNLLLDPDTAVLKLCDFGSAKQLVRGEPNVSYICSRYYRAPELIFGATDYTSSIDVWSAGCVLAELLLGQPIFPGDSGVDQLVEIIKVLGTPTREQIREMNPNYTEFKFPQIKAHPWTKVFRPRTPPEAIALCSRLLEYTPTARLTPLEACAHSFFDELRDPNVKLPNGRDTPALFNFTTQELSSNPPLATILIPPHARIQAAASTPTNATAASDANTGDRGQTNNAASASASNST

[8] = Inhibition of yeast alpha-glucosidase using p-nitrophenyl glycoside as substrate preincubated with enzyme for 15 mins followed by substrate addition for 30 mins; set-up: species or system Saccharomyces cerevisiae
Rattus norvegicus [9] = experiment: Anti-hyperglycemic activity in Wistar rat assessed as reduction in plasma glucose AUC (0 to 120 mins) at 10 mg/kg, po followed by sucrose load by oral sucrose tolerance test; assay type: functional
Rattus norvegicus [10] = experiment: Anti-hyperglycemic activity in Wistar rat assessed as reduction in plasma glucose AUC (0 to 120 mins) at 10 mg/kg, po followed by glucose load by oral glucose tolerance test; assay type: functional
[11] = Inhibition of yeast alpha-glucosidase using p-nitrophenyl glycoside as substrate preincubated with enzyme for 30 mins followed by substrate addition for 60 mins by spectrophotometric analysis; set-up: species or system Saccharomyces cerevisiae

With `COC(=O)Nc1ccc2c(c1)C(=Cc1ccc([N+](=O)[O-])cc1)C(=O)N2` (mixture of isomers) the inhibition in vivo at 5 mg/kg (Rattus norvegicus [1]) was 12.3%, the inhibition in vivo at 5 mg/kg (Rattus norvegicus [2]) was 28.8% and the inhibition (Saccharomyces cerevisiae [3]) was 103%. For the same molecule, the inhibition in vivo at 5 mg/kg (Rattus norvegicus [4]) was 42.1%, the Ratio IC50 (Saccharomyces cerevisiae [5]) was 80 and the IC50 [6] was 6.78 µM.

In the case of `O=C1Nc2ccccc2C1=Cc1ccc([N+](=O)[O-])cc1` (mixture of isomers), the inhibition (Saccharomyces cerevisiae [3]) is reported as 81.6% and the IC50 [6] is reported as 62.4 µM.

`O=C1Nc2ccccc2C1=CC(=O)c1ccco1` (mixture of isomers) showed an inhibition (Saccharomyces cerevisiae [3]) of 37.5%.

Work on `Cc1nn(-c2ccccc2)c(C)c1C=C1C(=O)Nc2ccccc21` (single isomer, unassigned) yielded an inhibition (Saccharomyces cerevisiae [3]) of 75.5% and an IC50 [6] of 153 µM.

Molecule `COC(=O)Nc1ccc2c(c1)C(=Cc1ccc(O)cc1)C(=O)N2` has an inhibition (Saccharomyces cerevisiae [3]) of 57.9% and an IC50 [6] of 76.7 µM.

With `O=C1Nc2ccc(NC(=O)c3ccccc3)cc2C1=Cc1ccc(O)cc1` (mixture of isomers) the IC50 [7] was 4.34 µM, the inhibition (Saccharomyces cerevisiae [3]) was 92.3% and the IC50 [6] was 136 µM.

For `O=C1Nc2ccc(NC(=O)c3ccccc3)cc2C1=Cc1ccc([N+](=O)[O-])cc1` (mixture of isomers), the inhibition (Saccharomyces cerevisiae [3]) was 104% and the IC50 [6] was 56.6 µM.

With `Cc1n[nH]c(C)c1C=C1C(=O)Nc2ccccc21` (mixture of isomers) the inhibition (Saccharomyces cerevisiae [3]) was 12.6%.

For `O=C1Nc2ccccc2C1=Cc1ccccn1`, the inhibition (Saccharomyces cerevisiae [3]) was -10%.

Molecule `O=C1Nc2ccc([N+](=O)[O-])cc2C1=Cc1cn[nH]c1C(=O)O` (mixture of isomers) has an inhibition (Saccharomyces cerevisiae [3]) of 33.6%.

With `COc1cc(NC(C)=O)c2c(c1)C(CC#N)(OC(C)=O)C(=O)N2` (stereo unspecified) the inhibition (Saccharomyces cerevisiae [3]) was 4.75%.

With `COc1cc(C=C2C(=O)Nc3ccc(NC(C)=O)cc32)cc(OC)c1OC` the inhibition (Saccharomyces cerevisiae [3]) was -9.74%.

With `Cn1cc(C=C2C(=O)Nc3ccccc32)cn1` the inhibition (Saccharomyces cerevisiae [3]) was 34.5%.

`O=C1Nc2ccc(Br)cc2C1=Cc1ccccn1` showed an inhibition (Saccharomyces cerevisiae [3]) of -1.49%.

`O=C1Nc2ccc(Br)cc2C1=Cc1ccncc1` (mixture of isomers) showed an inhibition (Saccharomyces cerevisiae [3]) of -0.73%.

With `COc1ccc(C(=O)CC2(O)C(=O)Nc3ccc(Br)cc32)cc1` (stereo unspecified) the inhibition (Saccharomyces cerevisiae [3]) was -3.83%.

For `O=C1Nc2ccccc2C1=Cc1ccncc1` (mixture of isomers), the inhibition (Saccharomyces cerevisiae [3]) was -3.17%.

`O=C1Nc2ccc(Br)cc2C1=CC(=O)c1ccco1` (mixture of isomers) showed an inhibition (Saccharomyces cerevisiae [3]) of -3.81%.

Molecule `Cc1[nH]ncc1C=C1C(=O)Nc2ccccc21` (mixture of isomers) has an inhibition (Saccharomyces cerevisiae [3]) of 40.8%.

For `Cc1ccc(C(=O)CC2(O)C(=O)Nc3ccc(Br)cc32)cc1` (stereo unspecified), the inhibition (Saccharomyces cerevisiae [3]) was -3.94%.

`CC(=O)Nc1ccc2c(c1)C(=Cc1cccc(O)c1)C(=O)N2` (single isomer, unassigned; isomer 1) showed an inhibition (Saccharomyces cerevisiae [3]) of 14.9%.

`COc1ccc2c(c1)C(=CC#N)C(=O)N2Cc1ccccc1` (single isomer, unassigned; isomer 1) gave an inhibition (Saccharomyces cerevisiae [3]) of 15.5%.

`O=C1Nc2ccc([N+](=O)[O-])cc2C1=Cc1ccncc1` (mixture of isomers) showed an inhibition (Saccharomyces cerevisiae [3]) of -1.71%.

In the case of `CN1C(=O)C2(CC2C#N)c2cc(Br)ccc21` (stereo unspecified), the inhibition (Saccharomyces cerevisiae [3]) is reported as 61.2%.

With `CN1C(=O)C(=Cc2ccccn2)c2ccccc21` the inhibition (Saccharomyces cerevisiae [3]) was 19.9%.

For `COC(=O)Nc1ccc2c(c1)C(=Cc1ccc(Br)cc1)C(=O)N2` (mixture of isomers), the inhibition (Saccharomyces cerevisiae [3]) was 81.7% and the IC50 [6] was 68.9 µM.

For `Nc1ccc(CC2C(=O)Nc3ccccc32)cc1` (stereo unspecified), the inhibition (Saccharomyces cerevisiae [3]) was -3.64%.

Work on `CCC(=O)Nc1cc(NC(=O)CC)c2c(c1)C(CC#N)(OC(=O)CC)C(=O)N2` (stereo unspecified) yielded an inhibition (Saccharomyces cerevisiae [3]) of 14.4%.

`O=C(N/N=C/c1cc(O)c(O)c(O)c1)c1cc2ccccc2[nH]1` gave an IC50 [8] of 2.3 µM.

`COc1ccc2c(c1)C(O)(CC(=O)c1ccc(C)cc1)C(=O)N2` (stereo unspecified) gave an inhibition (Saccharomyces cerevisiae [3]) of 65.4% and an IC50 [6] of 60 µM.

`O=C1Nc2ccccc2C1=Cc1ccc(O)cc1` (single isomer, unassigned; isomer 1) showed an inhibition (Saccharomyces cerevisiae [3]) of 21.6%.

`O=C1Nc2ccccc2C12CC2c1ccccn1` (stereo unspecified) gave an inhibition (Saccharomyces cerevisiae [3]) of 12.1%.

With `N#C[C@@H]1CCCN1C(=O)CNC12CC3CC(CC(O)(C3)C1)C2` [VILDAGLIPTIN] the inhibition in vivo at 10 mg/kg (Rattus norvegicus [9]) was 17.9% and the inhibition in vivo at 10 mg/kg (Rattus norvegicus [10]) was 28.6%.

Work on `O=C1Nc2ccc(NC(=O)c3ccco3)cc2C1=Cc1ccc(O)cc1` (mixture of isomers) yielded an inhibition (Saccharomyces cerevisiae [3]) of 57.9%.

`COc1ccc2c(c1)C(=CC(=O)O)C(=O)N2` (mixture of isomers) showed an inhibition (Saccharomyces cerevisiae [3]) of 81.1% and an IC50 [6] of 26.4 µM.

In the case of `O=C1Nc2ccccc2C1=Cc1cn[nH]c1C(=O)O` (mixture of isomers), the inhibition (Saccharomyces cerevisiae [3]) is reported as 11.4%.

`C[C@H]1O[C@H](O[C@H]2[C@H](O)[C@@H](O)[C@@H](O[C@H]3[C@H](O)[C@@H](O)C(O)O[C@@H]3CO)O[C@@H]2CO)[C@H](O)[C@@H](O)[C@@H]1N[C@H]1C=C(CO)[C@@H](O)[C@H](O)[C@H]1O` (stereo partly specified) [ACARBOSE] showed an inhibition (Saccharomyces cerevisiae [3]) of 46.6%, an inhibition in vivo at 5 mg/kg (Rattus norvegicus [4]) of 37.2% and an IC50 [6] of 436 µM.

`O=C(CSc1nnc2c(n1)[nH]c1ccccc12)c1cccc(O)c1` showed an IC50 [11] of 2.5 µM.

`O=C1Nc2ccc([N+](=O)[O-])cc2C1=CC(=O)c1ccco1` (single isomer, unassigned; isomer 1) gave an inhibition (Saccharomyces cerevisiae [3]) of 8.9%.

`CN1C(=O)C(=Cc2ccc(O)cc2)c2ccccc21` (mixture of isomers) gave an inhibition (Saccharomyces cerevisiae [3]) of 33.2%.

In the case of `O=C1Nc2ccccc2C1=Cc1cccs1` (mixture of isomers), the inhibition (Saccharomyces cerevisiae [3]) is reported as -1.25%.

Molecule `N#CCC1(O)C(=O)Nc2ccc(NC(=O)c3ccccc3)cc21` (stereo unspecified) has an inhibition (Saccharomyces cerevisiae [3]) of 29.2%.

`CC(=O)Nc1ccc2c(c1)C(CC(=O)O)(OC(C)=O)C(=O)N2` (stereo unspecified) gave an inhibition (Saccharomyces cerevisiae [3]) of -5.09%.

With `Cc1ccc(C(=O)CC2(O)C(=O)Nc3ccc(NC(=O)c4ccccc4)cc32)cc1` (stereo unspecified) the inhibition (Saccharomyces cerevisiae [3]) was 52.2%.

Molecule `Cc1ccc(C(=O)CC2(O)C(=O)Nc3ccccc32)cc1` (stereo unspecified) has an inhibition (Saccharomyces cerevisiae [3]) of -4.01%.

`O=C1Nc2ccc([N+](=O)[O-])cc2C1=Cc1cccnc1` showed an inhibition (Saccharomyces cerevisiae [3]) of -7.99%.

Work on `O=C1Nc2ccc(Br)cc2C1=Cc1cccnc1` yielded an inhibition (Saccharomyces cerevisiae [3]) of 10.7%.

In the case of `O=C1Nc2ccccc2C1=Cc1cccnc1` (mixture of isomers), the inhibition (Saccharomyces cerevisiae [3]) is reported as 2.08%.

`COc1cc(C=C2C(=O)Nc3ccc(NC(=O)c4ccco4)cc32)cc(OC)c1OC` (single isomer, unassigned; isomer 1) gave an inhibition (Saccharomyces cerevisiae [3]) of 31.8%.
